Measured values from article PMC4956231, “Molecular Mechanisms for Drug Hypersensitivity Induced by the Malaria Parasite’s Chloroquine Resistance Transporter” (PLoS Pathogens, 2016).
Read-outs that look alike come from different tables or passages of the source. Marks after values point to notes of the source that are not given here.

Key:
[1] = tested on: C=C[C@H]1C[N@@]2CC[C@H]1C[C@@H]2[C@@H](O)c1ccnc2ccc(OC)cc12; assay: cells, lysate or membranes; conditions: other: transport via 76I-PfCRT^K1 in oocytes; CQ pH 6.0, quinine and quinidine pH 5.0; 27.5 °C
[2] = tested on: C=C[C@H]1C[N@@]2CC[C@H]1C[C@H]2[C@H](O)c1ccnc2ccc(OC)cc12; assay: cells, lysate or membranes; conditions: other: transport via 76I-PfCRT^K1 in oocytes; CQ pH 6.0, quinine and quinidine pH 5.0; 27.5 °C
[3] = tested on: parasites carrying isoforms of PfCRT^CQR; conditions: in vitro studies, cited from earlier work
PfCRT^Dd2 [4] = molecular target: PfCRT^Dd2 (Plasmodium falciparum, UniProt Q9N623, A220S/I356T/K76T/M74I/N326S/N75E/Q271E/R371I); format: cell-based; conditions: extracellular concentrations of 1 and 2 mM; pH 5.5; 15 μM unlabeled CQ
Sequence of PfCRT^Dd2 (Plasmodium falciparum, UniProt Q9N623, A220S/I356T/K76T/M74I/N326S/N75E/Q271E/R371I) (Q9N623 whole entry M74I/N75E/K76T/A220S/Q271E/N326S/I356T/R371I): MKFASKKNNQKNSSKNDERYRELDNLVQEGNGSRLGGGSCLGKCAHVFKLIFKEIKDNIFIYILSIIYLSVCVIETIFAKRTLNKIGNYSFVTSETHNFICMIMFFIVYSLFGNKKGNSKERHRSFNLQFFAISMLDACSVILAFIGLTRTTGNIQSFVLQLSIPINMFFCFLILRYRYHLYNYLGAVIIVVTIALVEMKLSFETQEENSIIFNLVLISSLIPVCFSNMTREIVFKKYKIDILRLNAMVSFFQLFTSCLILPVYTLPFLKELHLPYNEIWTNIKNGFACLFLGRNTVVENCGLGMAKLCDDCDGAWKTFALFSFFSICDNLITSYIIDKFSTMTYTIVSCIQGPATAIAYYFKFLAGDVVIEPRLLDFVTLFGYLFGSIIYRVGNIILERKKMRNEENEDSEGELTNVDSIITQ
Method: The uptake of [^3H]CQ (0.25 μM) was measured in the absence (solvent control) or presence of the test compounds (extracellular concentrations of 1 and 2 mM). The assays were conducted at pH 5.5 and in the presence of 15 μM unlabeled CQ.

[5] = tested on: noninjected oocytes and oocytes expressing PfCRT variants or PfNT1; assay: Trans-stimulation of [3H]CQ uptake by microinjected compound, all oocyte types; format: cell-based, Plasmodium falciparum; conditions: any of the oocyte types, estimated intracellular concentrations 5 and 10 mM
Method: A subset of experiments measured the ability of unlabeled amantadine to trans-stimulate the uptake of [^3H]CQ into the oocyte. Immediately prior to the commencement of the experiment, the oocytes (days 3–4 post-injection of the cRNA) were microinjected with either amantadine (estimated intracellular concentrations of 1, 2.5, 5, 10, 15, or 20 mM) or a control treatment (buffer, spermine, or histidine; the estimated intracellular concentrations of spermine and histidine were 5 and 10 mM). The volume injected was 50 nL and the intracellular concentrations were calculated using previous estimates of the volume of stage V-VI oocytes (~400 nL [77]). The resealed oocytes were then incubated at 16–18°C in OR^2+ buffer for approximately 5 min and the influx of [^3H]CQ was measured as described above. […] The Michaelis-Menten equation was then fitted to the data to derive the kinetic parameters for the trans-stimulation of [^3H]CQ transport by amantadine.

PfCRT^Dd2 [6] = assay: [3H]drug transport into Xenopus oocytes expressing PfCRT; format: cell-based, Plasmodium falciparum; conditions: oocytes expressing PfCRT^Dd2; [3H]drug […], pH 5.0, 1 μM unlabeled drug (S4 Fig)
Method: (§1) For each treatment, 10 oocytes were transferred to a 5 mL polystyrene round bottom tube (Falcon) and washed twice with 3.5 mL of ND96 buffer, with the residual buffer removed by pipette. […] The assay was terminated by removing the reaction buffer with a pipette and washing the oocytes twice with 3.5 mL of ice-cold ND96 buffer. Each oocyte was transferred to a separate well of a white 96-well plate (NUNC or PerkinElmer), incubated overnight at room temperature in 30 μL of 10% SDS, and mixed on an orbital shaker the following day for approximately 5 min. The lysed oocyte was then combined with 150 μL of MicroScint-40 microscintillant (PerkinElmer), the plate covered with a TopSeal-A (PerkinElmer), and the radioactivity measured with a PerkinElmer MicroBeta^2 microplate liquid scintillation analyzer.

PfCRT^K1 [7] = assay: as above; format: cell-based, Plasmodium falciparum; conditions: for rate of uptake mediated by PfCRT^K1, greater than that measured for PfCRT^Dd2: S4 Fig; for rate of uptake: oocytes expressing PfCRT^K1, [3H]drug […], pH 5.0, 1 μM unlabeled drug (Fig 2B, C); for rate of transport, times lower than that measured for CQ: total drug 1.25 μM vs ~12-fold higher total CQ
Method: as §1

76N-PfCRT^K1 = assay: as above; format: cell-based, Plasmodium falciparum; conditions: transport via 76N-PfCRT^K1 in oocytes, CQ pH 6.0, quinine and quinidine pH 5.0; for Km: read-out: Apparent Km
Method: as §1
Note that noninjected oocytes and oocytes expressing PfCRT^3D7 take up [^3H]CQ to similar (low) levels via simple diffusion of the neutral species of the drug; this represents the ‘background’ level of [^3H]CQ accumulation in oocytes (refer to Martin et al. for full data and discussion).

76I-PfCRT^K1 [8] = molecular target: T1, 76I-PfCRT^K1 (Plasmodium falciparum, UniProt Q9N623, A220S/K76I/M74I/N326S/N75E/Q271E/R371I); format: cell-based; conditions: for Apparent Vmax: transport via 76I-PfCRT^K1 in oocytes, CQ pH 6.0, quinine and quinidine pH 5.0
T1 sequence (Q9N623 whole entry A220S/K76I/M74I/N326S/N75E/Q271E/R371I): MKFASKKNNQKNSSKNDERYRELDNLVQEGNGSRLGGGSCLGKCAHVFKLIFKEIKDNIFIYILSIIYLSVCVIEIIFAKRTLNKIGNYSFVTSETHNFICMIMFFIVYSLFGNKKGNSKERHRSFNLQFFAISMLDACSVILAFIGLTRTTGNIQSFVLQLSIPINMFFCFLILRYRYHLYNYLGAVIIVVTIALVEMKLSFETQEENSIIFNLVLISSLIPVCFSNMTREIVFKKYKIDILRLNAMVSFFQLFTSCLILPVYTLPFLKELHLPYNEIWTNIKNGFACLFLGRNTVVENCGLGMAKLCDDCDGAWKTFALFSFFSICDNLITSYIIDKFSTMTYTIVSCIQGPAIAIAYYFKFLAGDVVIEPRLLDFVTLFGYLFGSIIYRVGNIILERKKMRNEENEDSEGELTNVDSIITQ
Method: as §1

noninjected oocytes = assay: [3H]drug uptake into noninjected oocytes (background accumulation); format: cell-based, Xenopus laevis; conditions: [3H]drug […]
Method: as §1

PfCRT^K1 [9] = assay: Inhibition of [3H]amantadine transport in oocytes; format: cell-based, Plasmodium falciparum; conditions: via PfCRT^K1 in oocytes
Method: as §1

76I,369F-PfCRT^K1 = 76I,369F-PfCRT^K1 (Plasmodium falciparum, UniProt Q9N623, A220S/K76I/M74I/N326S/N75E/Q271E/R371I/V369F); assay: Inhibition of [3H]amantadine transport in oocytes; format: cell-based; conditions: via 76I,369F-PfCRT^K1 in oocytes
Sequence of 76I,369F-PfCRT^K1 (Q9N623 whole entry A220S/K76I/M74I/N326S/N75E/Q271E/R371I/V369F): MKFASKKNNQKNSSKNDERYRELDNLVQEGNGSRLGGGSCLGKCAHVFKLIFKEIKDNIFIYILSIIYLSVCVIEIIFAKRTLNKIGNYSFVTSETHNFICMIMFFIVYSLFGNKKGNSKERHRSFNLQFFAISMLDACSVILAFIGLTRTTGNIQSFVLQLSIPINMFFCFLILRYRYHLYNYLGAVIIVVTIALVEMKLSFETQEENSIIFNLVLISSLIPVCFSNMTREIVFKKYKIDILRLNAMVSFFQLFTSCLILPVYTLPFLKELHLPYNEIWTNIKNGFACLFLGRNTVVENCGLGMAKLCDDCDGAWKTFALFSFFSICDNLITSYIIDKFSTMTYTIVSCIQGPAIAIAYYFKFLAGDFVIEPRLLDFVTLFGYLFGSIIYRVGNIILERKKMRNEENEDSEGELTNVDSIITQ
Method: as §1

76I-PfCRT^K1 [10] = molecular target: T1, 76I-PfCRT^K1; assay: Inhibition of [3H]amantadine transport in oocytes; format: cell-based; conditions: via 76I-PfCRT^K1 in oocytes
Method: as §1

PfCRT^CQR = conditions: oocyte system, inhibitor of PfCRT^CQR; cited from earlier work
[11] = artemisinin and/or dihydroartemisinin
[12] = transport via PfCRT^K1 in oocytes, CQ pH 6.0, quinine and quinidine pH 5.0
[13] = pH 5.0, 1 μM unlabeled drug (Fig 2B, C)
[14] = pH 5.0, 1 μM unlabeled drug (S4 Fig)

76I-PfCRT^K1 (Plasmodium falciparum; A220S/K76I/M74I/N326S/N75E/Q271E/R371I)
Km [1]: 24.1 ± 3.0^f (6) μM
Km [2]: 0.42 ± 0.04^c,f (4) μM

C[C@@H]1CC[C@H]2[C@@H](C)C(=O)O[C@@H]3O[C@@]4(C)CC[C@@H]1[C@]32OO4 [artemisinin]
decrease in the IC50 induced by isoforms of PfCRT^CQR (hypersensitivity) [3, 11]: 1.9–3.7 fold

C[C@H]1[C@@H](O)O[C@@H]2O[C@@]3(C)CC[C@H]4[C@H](C)CC[C@@H]1[C@@]24OO3 [dihydroartemisinin]
decrease in the IC50 induced by isoforms of PfCRT^CQR (hypersensitivity) [3, 11]: 1.9–3.7 fold

N[C@@H](Cc1c[nH]cn1)C(=O)O [histidine]
effect on accumulation of [3H]CQ in oocytes expressing PfCRT (PfCRT^Dd2 [4]): do not inhibit
effect on [3H]CQ uptake (trans-stimulation) [5]: neither spermine nor histidine altered

CCCCN(CCCC)CC(O)c1cc(Cl)cc2c1-c1ccc(Cl)cc1/C2=C/c1ccc(Cl)cc1 (centres unmarked) [lumefantrine]
decrease in the IC50 induced by isoforms of PfCRT^CQR (hypersensitivity) [3]: 1.5–3.2 fold

C=C[C@H]1C[N@@]2CC[C@H]1C[C@@H]2[C@@H](O)c1ccnc2ccc(OC)cc12 [quinidine]
rate of uptake (PfCRT^Dd2 [6]): 0.30 ± 0.07 pmol per oocyte/h
rate of uptake mediated by PfCRT^K1, greater than that measured for PfCRT^Dd2 (PfCRT^K1 [7]): 17–35%
rate of uptake (PfCRT^K1 [7]): 0.38 ± 0.08 pmol per oocyte/h
rate of transport, times lower than that measured for CQ (PfCRT^K1 [7]): 10–15 times
Apparent Vmax (PfCRT^K1 [7]; [12]): 24.4 ± 1.6 (7) pmol per oocyte/h
Km (PfCRT^K1 [7]; transport via PfCRT^K1 in oocytes, CQ pH 6.0, quinine and quinidine pH 5.0, 76K-PfCRT^K1 control subtracted, read-out: Apparent Km): 84 ± 1 µM
Apparent Vmax (76N-PfCRT^K1): 14.1 ± 0.9^e,g (6) pmol per oocyte/h
Km (76N-PfCRT^K1): 94 ± 4 µM
Apparent Vmax (76I-PfCRT^K1 [8]): 7.2 ± 0.5^e,g (6) pmol per oocyte/h
rate of uptake (noninjected oocytes; [13]): 0.063 ± 0.010 pmol per oocyte/h
rate of uptake (noninjected oocytes; [14]): 0.05 ± 0.01 pmol per oocyte/h

C=C[C@H]1C[N@@]2CC[C@H]1C[C@H]2[C@H](O)c1ccnc2ccc(OC)cc12 [quinine]
rate of uptake (PfCRT^Dd2 [6]): 0.44 ± 0.04 pmol per oocyte/h
rate of uptake mediated by PfCRT^K1, greater than that measured for PfCRT^Dd2 (PfCRT^K1 [7]): 17–35%
rate of uptake (PfCRT^K1 [7]): 0.55 ± 0.03 pmol per oocyte/h
rate of transport, times lower than that measured for CQ (PfCRT^K1 [7]): 10–15 times
Apparent Vmax (PfCRT^K1 [7]; [12]): 10.3 ± 0.8 (7) pmol per oocyte/h
Apparent Vmax (76N-PfCRT^K1): 13.0 ± 1.0^d,f (6) pmol per oocyte/h
Km (76N-PfCRT^K1): 41 ± 2.6 µM
Vmax of 76I-PfCRT^K1, times lower than the value obtained for PfCRT^K1 (76I-PfCRT^K1 [8]; quinine transport): ~ 115 times
Apparent Vmax (76I-PfCRT^K1 [8]): 0.09 ± 0.01^c,f (4) pmol per oocyte/h
rate of uptake (noninjected oocytes; [13]): 0.10 ± 0.01 pmol per oocyte/h
rate of uptake (noninjected oocytes; [14]): 0.10 ± 0.01 pmol per oocyte/h

CC(C)(C)NC(=O)[C@@H]1C[C@@H]2CCCC[C@@H]2CN1C[C@@H](O)[C@H](Cc1ccccc1)NC(=O)[C@H](CC(N)=O)NC(=O)c1ccc2ccccc2n1 [saquinavir]
effect on [3H]amantadine transport (PfCRT^K1 [9]): inhibited
effect on [3H]amantadine transport (76I,369F-PfCRT^K1): inhibited
effect on [3H]amantadine transport (76I-PfCRT^K1 [10]): inhibited
IC50 (PfCRT^CQR): 13 ± 1 µM

NCCCNCCCCNCCCN [spermine]
effect on accumulation of [3H]CQ in oocytes expressing PfCRT (PfCRT^Dd2 [4]): do not inhibit
effect on [3H]CQ uptake (trans-stimulation) [5]: neither spermine nor histidine altered

COc1ccc(CCN(C)CCCC(C#N)(c2ccc(OC)c(OC)c2)C(C)C)cc1OC (centres unmarked) [verapamil]
effect on [3H]amantadine transport (PfCRT^K1 [9]): inhibited
effect on [3H]amantadine transport (76I,369F-PfCRT^K1): inhibited
effect on [3H]amantadine transport (76I-PfCRT^K1 [10]): inhibited
